Measurements from patent US8067640B2, “Method for the separation of intermediates which may be used for the preparation of escitalopram” (H. Lundbeck A/S, priority 2002, dated 2011).

Assay: Partition of compound A and compound B between aqueous layer and toluene layer in the presence of various acids
Conditions: 40° C., 1 hour
Procedure: Thus-obtained mixed solvent was separated into aqueous layer and toluene layer, and then the concentrations of compound A and B in each layer were measured. Partition coefficients Ka or Kb are calculated according to the following equation. Ka=(Concentration of the compound A in aqueous layer)/(Concentration of the compound A in toluene layer) Kb=(Concentration of the compound B in aqueous layer)/(Concentration of the compound B in toluene layer)

- Partition coefficient Ka (3-Phenylpropionic acid): 5.67
- Partition coefficient Ka (4-Biphenylcarboxylic acid): 0.87
- Partition coefficient Ka (Benzoic acid): 18.4
- Partition coefficient Ka (Caproic acid): 5.04
- Partition coefficient Ka (Cyclohexanecarboxylic acid): 3.89
- Partition coefficient Ka (Isobutyric acid): 39.2
- Partition coefficient Ka (Isophthalic acid): 7.43
- Partition coefficient Ka (Isovaleric acid): 24.4
- Partition coefficient Ka (Maleic acid): 31.1
- Partition coefficient Ka (Malonic acid): 38.5
- Partition coefficient Ka (Oxalic acid): 1092
- Partition coefficient Ka (Phthalic acid): 20.8
- Partition coefficient Ka (Pivalic acid): 9.03
- Partition coefficient Ka (Salicylic acid): 13.0
- Partition coefficient Ka (Succinic acid): 24.1
- Partition coefficient Ka (Terephthalic acid): 16.8
- Partition coefficient Ka (acid: None): 0.17
- Partition coefficient Ka (m-Chlorobenzoic acid): 4.98
- Partition coefficient Ka (m-Methoxybenzoic acid): 9.23
- Partition coefficient Ka (m-Nitrobenzoic acid): 19.5
- Partition coefficient Ka (m-Toluic acid): 6.00
- Partition coefficient Ka (o-Chlorobenzoic acid): 22.8
- Partition coefficient Ka (o-Methoxybenzoic acid): 27.1
- Partition coefficient Ka (o-Nitrobenzoic acid): 30.7
- Partition coefficient Ka (o-Toluic acid): 9.11
- Partition coefficient Ka (p-Chlorobenzoic acid): 7.01
- Partition coefficient Ka (p-Ethylbenzoic acid): 2.28
- Partition coefficient Ka (p-Fluorobenzoic acid): 14.4
- Partition coefficient Ka (p-Hydroxybenzoic acid): 70.8
- Partition coefficient Ka (p-Methoxybenzoic acid): 12.3
- Partition coefficient Ka (p-Toluenesulfonic acid): 164
- Partition coefficient Ka (p-Toluic acid): 5.97
Compound: CN(C)CCC[C@](O)(c1ccc(F)cc1)c1ccc(C#N)cc1CO [compound A, (S)-4-[4-dimethylamino-1-(4′-fluorophenyl)-1-hydroxybutyl]-3-hydroxymethylbenzonitrile]
